# Tested on: A549 (Human lung cancer cell line)
# Assay: Effect of combination of sulfonamide compound and other antitumor agent (CellTiter-Glo, combination index): A549
# [1] = Table 36: Example Compound 1 345 nM + Prexasertib 1.98 nM, molar ratio 1:0.005730
# [2] = Table 36: Example Compound 1 345 nM + SCH900776 910 nM, molar ratio 1:2.639
# [3] = Table 36: Example Compound 1 517 nM + AZD6738 1037 nM, molar ratio 1:2.005
# [4] = Table 36: Example Compound 1 517 nM + Fludarabine nucleoside 5910 nM, molar ratio 1:11.44
# [5] = Table 36: Example Compound 1 517 nM + Prexasertib 2.96 nM, molar ratio 1:0.005730
# [6] = Table 36: Example Compound 1 517 nM + SCH900776 1360 nM, molar ratio 1:2.639
# [7] = Table 36: Example Compound 1 775 nM + AZD6738 1554 nM, molar ratio 1:2.005
# [8] = Table 36: Example Compound 1 775 nM + Decitabine 1340 nM, molar ratio 1:1.733
# [9] = Table 36: Example Compound 1 775 nM + Fludarabine nucleoside 8870 nM, molar ratio 1:11.44
# [10] = Table 36: Example Compound 1 775 nM + Guadecitabine 469 nM, molar ratio 1:0.6048
# [11] = Table 36: Example Compound 1 775 nM + Prexasertib 4.44 nM, molar ratio 1:0.005730
# [12] = Table 36: Example Compound 1 775 nM + SCH900776 2050 nM, molar ratio 1:2.639
# [13] = Table 36: Example Compound 1 1160 nM + AZD6738 2326 nM, molar ratio 1:2.005
# [14] = Table 36: Example Compound 1 1160 nM + Cytarabine 110 nM, molar ratio 1:0.09524
# [15] = Table 36: Example Compound 1 1160 nM + Decitabine 2010 nM, molar ratio 1:1.733
# [16] = Table 36: Example Compound 1 1160 nM + Fludarabine nucleoside 13300 nM, molar ratio 1:11.44
# [17] = Table 36: Example Compound 1 1160 nM + Gemcitabine 5.58 nM, molar ratio 1:0.004813
# [18] = Table 36: Example Compound 1 1160 nM + Guadecitabine 702 nM, molar ratio 1:0.6048
# [19] = Table 36: Example Compound 1 1160 nM + SCH900776 3060 nM, molar ratio 1:2.639
# [20] = Table 36: Example Compound 1 1160 nM + Sunitinib 1870 nM, molar ratio 1:1.608
# [21] = Table 36: Example Compound 1 1160 nM + Trifluridine 430 nM, molar ratio 1:0.3703
# [22] = Table 36: Example Compound 1 1740 nM + 5-Fluorouracil 4300 nM, molar ratio 1:2.469
# [23] = Table 36: Example Compound 1 1740 nM + Azacytidine 4080 nM, molar ratio 1:2.344
# [24] = Table 36: Example Compound 1 1740 nM + Cabozantinib 5990 nM, molar ratio 1:3.443
# [25] = Table 36: Example Compound 1 1740 nM + Cytarabine 166 nM, molar ratio 1:0.09524
# [26] = Table 36: Example Compound 1 1740 nM + Decitabine 3020 nM, molar ratio 1:1.733
# [27] = Table 36: Example Compound 1 1740 nM + Etoposide 3780 nM, molar ratio 1:2.174
# [28] = Table 36: Example Compound 1 1740 nM + Fludarabine nucleoside 19900 nM, molar ratio 1:11.44
# [29] = Table 36: Example Compound 1 1740 nM + Gemcitabine 8.37 nM, molar ratio 1:0.004813
# [30] = Table 36: Example Compound 1 1740 nM + Guadecitabine 1050 nM, molar ratio 1:0.6048
# [31] = Table 36: Example Compound 1 1740 nM + Lapatinib 5990 nM, molar ratio 1:3.443
# [32] = Table 36: Example Compound 1 1740 nM + Luminespib 13.5 nM, molar ratio 1:0.007735
# [33] = Table 36: Example Compound 1 1740 nM + Midostaurin 250 nM, molar ratio 1:0.1438
# [34] = Table 36: Example Compound 1 1740 nM + Olaparib 14800 nM, molar ratio 1:8.494
# [35] = Table 36: Example Compound 1 1740 nM + Oxaliplatin 1060 nM, molar ratio 1:0.6082
# [36] = Table 36: Example Compound 1 1740 nM + SCH900776 4590 nM, molar ratio 1:2.639
# [37] = Table 36: Example Compound 1 1740 nM + Sunitinib 2800 nM, molar ratio 1:1.608
# [38] = Table 36: Example Compound 1 1740 nM + Talazoparib 7980 nM, molar ratio 1:4.587
# [39] = Table 36: Example Compound 1 1740 nM + Trifluridine 644 nM, molar ratio 1:0.3703
# [40] = Table 36: Example Compound 1 2620 nM + Carboplatin 79500 nM, molar ratio 1:30.35
# [41] = Table 36: Example Compound 1 2620 nM + Cisplatin 3610 nM, molar ratio 1:3.669
# [42] = Table 36: Example Compound 1 2620 nM + Trifluridine 970 nM, molar ratio 1:0.3703
# [43] = Table 36: Example Compound 1 3920 nM + Carboplatin 119000 nM, molar ratio 1:30.35
# [44] = Table 36: Example Compound 1 3920 nM + Cisplatin 14400 nM, molar ratio 1:3.669
# [45] = Table 36: Example Compound 1 5890 nM + Carboplatin 179000 nM, molar ratio 1:30.35
# [46] = Table 36: Example Compound 1 8830 nM + Carboplatin 268000 nM, molar ratio 1:30.35
# Description: Each cell line was seeded at 90 L/well to a 96-well culture plate (Thermo Fisher Scientific, Inc.) according to the above tables. The cell-seeded plate was cultured in an incubator set to 37° C. and 500 CO2. On the day following seeding, varying concentrations of the sulfonamide compound and the other antitumor agent were added in combination to the cells. […] The serial dilutions of each compound, or DW was added at 5μL/well to the plate such that each compound and DW, or the sulfonamide compound and the other antitumor agent were combined. […] The plate after the addition was cultured at 37° C. for 3 days under 5% CO2 conditions.
# Three days later, CellTiter-Glo(R) 2.0 Reagent (Promega Corporation) was added at 100 μL/well, and the amount of luminescence was measured using a plate reader EnSpire(R) Multimode Plate Reader (PerkinElmer Co., Ltd.).
# An average value from 3 wells was calculated as to each drug condition from the obtained data, and cell survival rate normalized against control wells supplemented with the vehicle (DW) was calculated. A Fa (fractional inhibition) value was calculated by subtracting the cell survival rate from 1.
smiles,measurement,setting,value
"Cc1ccc(F)c([C@@H](C)[C@H](NS(=O)(=O)c2ccc(Br)cc2C(N)=O)c2n[nH]c(=O)o2)c1C [Example 1, 5-bromo-2-(N-((1 S,2R)-2-(6-fluoro-2,3-dimethylphenyl)-1-(5-oxo-4,5-dihydro-1,3,4-oxadiazol-2-yl)propyl)sulfamoyl)benzamide]",CI value,[1],0.363
same,Fa value,[1],0.4283
same,CI value,[2],0.287
same,Fa value,[2],0.5875
same,CI value,[3],0.486
same,Fa value,[3],0.5213
same,CI value,[4],0.818
same,Fa value,[4],0.1823
same,CI value,[5],0.207
same,Fa value,[5],0.7673
same,CI value,[6],0.250
same,Fa value,[6],0.7191
same,CI value,[7],0.318
same,Fa value,[7],0.7989
same,CI value,[8],0.528
same,Fa value,[8],0.3618
same,CI value,[9],0.559
same,Fa value,[9],0.5070
same,CI value,[10],0.558
same,Fa value,[10],0.3478
same,CI value,[11],0.174
same,Fa value,[11],0.8934
same,CI value,[12],0.210
same,Fa value,[12],0.8457
same,CI value,[13],0.309
same,Fa value,[13],0.8880
same,CI value,[14],0.842
same,Fa value,[14],0.4712
same,CI value,[15],0.573
same,Fa value,[15],0.4748
same,CI value,[16],0.405
same,Fa value,[16],0.8089
same,CI value,[17],0.865
same,Fa value,[17],0.6357
same,CI value,[18],0.627
same,Fa value,[18],0.4476
same,CI value,[19],0.255
same,Fa value,[19],0.8825
same,CI value,[20],0.740
same,Fa value,[20],0.7514
same,CI value,[21],0.842
same,Fa value,[21],0.6401
same,CI value,[22],0.835
same,Fa value,[22],0.7276
same,CI value,[23],0.820
same,Fa value,[23],0.6539
same,CI value,[24],0.688
same,Fa value,[24],0.8307
same,CI value,[25],0.619
same,Fa value,[25],0.7121
same,CI value,[26],0.627
same,Fa value,[26],0.5994
same,CI value,[27],0.631
same,Fa value,[27],0.7574
same,CI value,[28],0.537
same,Fa value,[28],0.8431
same,CI value,[29],0.757
same,Fa value,[29],0.8623
same,CI value,[30],0.640
same,Fa value,[30],0.5997
same,CI value,[31],0.400
same,Fa value,[31],0.8672
same,CI value,[32],0.828
same,Fa value,[32],0.8341
same,CI value,[33],0.624
same,Fa value,[33],0.8366
same,CI value,[34],0.575
same,Fa value,[34],0.7460
same,CI value,[35],0.787
same,Fa value,[35],0.7638
same,CI value,[36],0.411
same,Fa value,[36],0.8708
same,CI value,[37],0.811
same,Fa value,[37],0.8380
same,CI value,[38],0.508
same,Fa value,[38],0.7568
same,CI value,[39],0.696
same,Fa value,[39],0.8343
same,CI value,[40],0.519
same,Fa value,[40],0.8844
same,CI value,[41],0.701
same,Fa value,[41],0.9341
same,CI value,[42],0.744
same,Fa value,[42],0.9017
same,CI value,[43],0.474
same,Fa value,[43],0.9458
same,CI value,[44],0.608
same,Fa value,[44],0.9720
same,CI value,[45],0.627
same,Fa value,[45],0.9560
same,CI value,[46],0.635
same,Fa value,[46],0.9773
